pIC50: −log10 of the molar value.

The target in this test is Sodium channel protein type 10 subunit alpha (Homo sapiens, UniProt Q9Y5Y9). Nature of the test: Pharmacological Assay. An excerpt: Utilizing the voltage-clamp mode in the QPatch 48 HTX system a half inactivation state voltage protocol (V1/2) was used to determine pharmacological activity of compounds of the invention at Nav1.8 ion channels. A V1/2 protocol was utilized with the following voltage steps: a holding voltage of −100 mV was established followed by a 20 ms voltage step to 0 mV (P1), followed by an inactivating voltage step at −46 mV for 8 seconds, followed by a step to −100 mV for 20 ms, before a 20 ms step to 0 mV (P2), then returned to the holding voltage of −100 mV. This voltage protocol was repeated at a frequency of every 15 seconds, the current magnitude was quantified at the P2 step throughout the recording. Inhibition of the measured current amplitude with compounds of the invention was analyzed by fitting a 4-6 points dose-response curve allowing determination of the fifty percent inhibition concentration (IC50). P2 currents were normalized according to measurements made at baseline (Baseline, vehicle only), after compound (Input, at each test concentration), and after positive reference compound (FullResponse, to achieve complete block), fit to the following equation:n.ICPD=NormalizedCurrent=(Input-Baseline)(FullResponse-Baseline)[1570]To assess current run-down over the course of the experiment vehicle-only wells were utilized and the normalized current with vehicle-only (n.IVEH) was determined. To correct the compound response for run-down, the currents were corrected according to the following formula:n.IRD_Correct=(n.ICPD-n.IVEH)(1-n.IVEH)
Chain of Sodium channel protein type 10 subunit alpha (Q9Y5Y9 whole entry): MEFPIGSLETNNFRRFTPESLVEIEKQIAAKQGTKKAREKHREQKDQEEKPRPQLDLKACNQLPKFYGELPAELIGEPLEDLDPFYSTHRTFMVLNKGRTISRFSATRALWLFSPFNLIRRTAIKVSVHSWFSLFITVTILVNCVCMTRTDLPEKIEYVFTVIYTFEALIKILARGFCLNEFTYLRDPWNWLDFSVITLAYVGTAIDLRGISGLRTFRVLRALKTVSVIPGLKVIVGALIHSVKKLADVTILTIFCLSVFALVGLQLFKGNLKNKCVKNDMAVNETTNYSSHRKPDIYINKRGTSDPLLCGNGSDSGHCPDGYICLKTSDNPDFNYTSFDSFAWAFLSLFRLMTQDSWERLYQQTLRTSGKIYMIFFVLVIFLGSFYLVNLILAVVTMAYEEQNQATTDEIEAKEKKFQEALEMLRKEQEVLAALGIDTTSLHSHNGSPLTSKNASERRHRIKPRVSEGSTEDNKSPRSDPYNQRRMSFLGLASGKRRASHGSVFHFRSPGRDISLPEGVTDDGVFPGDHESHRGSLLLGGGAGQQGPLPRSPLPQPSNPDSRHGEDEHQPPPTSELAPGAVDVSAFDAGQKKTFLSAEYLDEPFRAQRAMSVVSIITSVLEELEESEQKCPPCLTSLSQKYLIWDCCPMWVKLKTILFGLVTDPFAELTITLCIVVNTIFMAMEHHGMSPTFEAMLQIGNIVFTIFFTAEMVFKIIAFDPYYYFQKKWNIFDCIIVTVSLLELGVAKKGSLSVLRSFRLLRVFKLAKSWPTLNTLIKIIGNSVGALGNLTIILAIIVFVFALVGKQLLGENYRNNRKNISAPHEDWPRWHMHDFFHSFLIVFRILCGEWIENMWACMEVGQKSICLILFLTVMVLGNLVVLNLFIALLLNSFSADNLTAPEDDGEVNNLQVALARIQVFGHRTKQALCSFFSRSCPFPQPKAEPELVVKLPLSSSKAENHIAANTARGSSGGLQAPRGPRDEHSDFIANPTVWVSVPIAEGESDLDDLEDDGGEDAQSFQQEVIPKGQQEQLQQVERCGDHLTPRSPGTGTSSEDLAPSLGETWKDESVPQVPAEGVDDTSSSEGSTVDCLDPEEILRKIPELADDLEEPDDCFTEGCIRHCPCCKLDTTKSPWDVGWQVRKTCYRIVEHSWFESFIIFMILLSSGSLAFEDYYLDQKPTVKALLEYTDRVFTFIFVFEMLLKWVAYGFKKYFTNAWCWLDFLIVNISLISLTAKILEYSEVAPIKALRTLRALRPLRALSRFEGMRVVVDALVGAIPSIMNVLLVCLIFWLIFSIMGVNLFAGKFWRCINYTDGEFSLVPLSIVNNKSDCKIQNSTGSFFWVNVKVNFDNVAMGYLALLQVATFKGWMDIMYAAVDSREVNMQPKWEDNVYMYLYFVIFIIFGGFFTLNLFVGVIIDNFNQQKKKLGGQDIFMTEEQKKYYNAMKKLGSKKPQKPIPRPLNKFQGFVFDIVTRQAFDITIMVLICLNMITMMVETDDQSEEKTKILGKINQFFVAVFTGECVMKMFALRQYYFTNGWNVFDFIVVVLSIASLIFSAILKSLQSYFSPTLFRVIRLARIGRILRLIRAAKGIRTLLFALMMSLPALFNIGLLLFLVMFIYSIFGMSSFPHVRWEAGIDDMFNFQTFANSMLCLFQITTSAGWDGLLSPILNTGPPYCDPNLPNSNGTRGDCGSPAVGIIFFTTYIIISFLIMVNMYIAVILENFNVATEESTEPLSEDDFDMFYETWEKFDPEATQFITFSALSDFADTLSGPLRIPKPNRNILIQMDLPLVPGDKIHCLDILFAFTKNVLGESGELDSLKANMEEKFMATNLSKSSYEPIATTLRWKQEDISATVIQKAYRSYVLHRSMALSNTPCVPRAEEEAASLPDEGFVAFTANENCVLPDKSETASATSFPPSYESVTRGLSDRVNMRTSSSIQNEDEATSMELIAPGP
Turning to `O=C1c2cc(F)c(C(F)(F)F)cc2N2CN1c1ccc(=O)[nH]c1CCNCc1c2ccc(OC(F)(F)F)c1F` [US20250368647, Example 52], the pIC50 (as a rule, −log10 of the IC50, conventionally taken in molar units) is 8.50.

For `CC1CCNc2[nH]c(=O)ccc2N2CN(c3cc(C(F)(F)F)c(F)cc3C2=O)c2ccc(F)c(F)c21` (stereo unspecified) [US20250368647, Example 131], the pIC50 was 7.80.

For the compound `O=C1c2cc(F)c(C(F)(F)F)cc2N2CN1c1ccc(=O)[nH]c1CCNCc1cc(OC(F)(F)F)ccc12` [US20250368647, Example 51], the negative logarithm of the IC50 (pIC50) was 8.00. This pIC50 lies 0.20 log units higher than the previous one.

With `O=C1c2cc(C(F)(F)F)ccc2N2CN1c1ccc(=O)[nH]c1CCNCc1cc(F)c(F)cc12` [US20250368647, Example 47], the pIC50 was 6.70.

`O=C1c2ccc(C(F)(F)F)cc2N2CN1c1ccc(=O)[nH]c1CCCCCOc1cc(F)ccc12` [US20250368647, Example 19] gave a pIC50 of 6.50.

`O=C1c2cc(OCC(F)(F)F)ccc2N2CN1c1ccc(=O)[nH]c1CCNCc1cc(F)ccc12` [US20250368647, Example 56] gave a pIC50 of 5.90.

The record behind these values is BindingDB's records for patent US20250368647 (Glaxosmithkline Intellectual Property Development, 2025).
